Reference: ChEMBL document CHEMBL2346657, “Synthesis of novel 2-amino-4-(5'-substituted 2'-phenyl-1H-indol-3'-yl)-6-aryl-4H-pyran-3-carbonitrile derivatives as antimicrobial and antioxidant agents” (2013)
The source made the active and inactive calls.

Assays:
Type in all cases: functional
Pseudomonas aeruginosa [1] = experiment: Antimicrobial activity against Pseudomonas aeruginosa MTCC 1688 at 1000 ug/ml after 24 hrs by cup plate method; conditions: MTCC 1688, 24 h, read-out: IZ
Aspergillus flavus [2] = experiment: Antimicrobial activity against Aspergillus flavus MTCC 1973 at 500 ug/ml after 72 hrs by cup plate method; conditions: MTCC 1973, 72 h, read-out: IZ
Klebsiella pneumoniae [3] = experiment: Antimicrobial activity against Klebsiella pneumoniae NCTC 13368 at 1000 ug/ml after 24 hrs by cup plate method; conditions: NCTC 13368, 24 h, read-out: IZ
Aspergillus niger [4] = experiment: Antimicrobial activity against Aspergillus niger MTCC 281 at 500 ug/ml after 72 hrs by cup plate method; conditions: MTCC 281, 72 h, read-out: IZ
Klebsiella pneumoniae [5] = experiment: Antimicrobial activity against Klebsiella pneumoniae NCTC 13368 at 500 ug/ml after 24 hrs by cup plate method; conditions: NCTC 13368, 24 h, read-out: IZ
Escherichia coli [6] = experiment: Antimicrobial activity against Escherichia coli MTCC 723 at 1000 ug/ml after 24 hrs by cup plate method; conditions: MTCC 723, 24 h, read-out: IZ
[7] = system: Radical scavenging activity; experiment: Antioxidant activity assessed as DPPH radical scavenging activity at 100 ug/ml
Escherichia coli [8] = experiment: Antimicrobial activity against Escherichia coli MTCC 723 at 750 ug/ml after 24 hrs by cup plate method; conditions: MTCC 723, 24 h, read-out: IZ
Staphylococcus aureus [9] = experiment: Antimicrobial activity against Staphylococcus aureus ATCC 29513 at 750 ug/ml after 24 hrs by cup plate method; conditions: ATCC 29513, 24 h, read-out: IZ
Aspergillus niger [10] = experiment: Antimicrobial activity against Aspergillus niger MTCC 281 at 1000 ug/ml after 72 hrs by cup plate method; conditions: MTCC 281, 72 h, read-out: IZ
Aspergillus oryzae [11] = experiment: Antimicrobial activity against Aspergillus oryzae MTCC 3567 at 1000 ug/ml after 72 hrs by cup plate method; conditions: MTCC 3567, 72 h, read-out: IZ
Escherichia coli [12] = experiment: Antimicrobial activity against Escherichia coli MTCC 723 at 500 ug/ml after 24 hrs by cup plate method; conditions: MTCC 723, 24 h, read-out: IZ
Aspergillus oryzae [13] = experiment: Antimicrobial activity against Aspergillus oryzae MTCC 3567 at 750 ug/ml after 72 hrs by cup plate method; conditions: MTCC 3567, 72 h, read-out: IZ
Aspergillus flavus [14] = experiment: Antimicrobial activity against Aspergillus flavus MTCC 1973 at 750 ug/ml after 72 hrs by cup plate method; conditions: MTCC 1973, 72 h, read-out: IZ
[15] = Antioxidant activity assessed as metal chelating activity by measuring inhibition of ferrozine-Fe2+ complex formation at 25 to 100 ug/ml
Klebsiella pneumoniae [16] = experiment: Antimicrobial activity against Klebsiella pneumoniae NCTC 13368 at 750 ug/ml after 24 hrs by cup plate method; conditions: NCTC 13368, 24 h, read-out: IZ
Staphylococcus aureus [17] = experiment: Antimicrobial activity against Staphylococcus aureus ATCC 29513 at 1000 ug/ml after 24 hrs by cup plate method; conditions: ATCC 29513, 24 h, read-out: IZ
Aspergillus oryzae [18] = experiment: Antimicrobial activity against Aspergillus oryzae MTCC 3567 at 500 ug/ml after 72 hrs by cup plate method; conditions: MTCC 3567, 72 h, read-out: IZ
Aspergillus niger [19] = experiment: Antimicrobial activity against Aspergillus niger MTCC 281 at 750 ug/ml after 72 hrs by cup plate method; conditions: MTCC 281, 72 h, read-out: IZ
Aspergillus flavus [20] = experiment: Antimicrobial activity against Aspergillus flavus MTCC 1973 at 1000 ug/ml after 72 hrs by cup plate method; conditions: MTCC 1973, 72 h, read-out: IZ
Pseudomonas aeruginosa [21] = experiment: Antimicrobial activity against Pseudomonas aeruginosa MTCC 1688 at 500 ug/ml after 24 hrs by cup plate method; conditions: MTCC 1688, 24 h, read-out: IZ
Staphylococcus aureus [22] = experiment: Antimicrobial activity against Staphylococcus aureus ATCC 29513 at 500 ug/ml after 24 hrs by cup plate method; conditions: ATCC 29513, 24 h, read-out: IZ
Pseudomonas aeruginosa [23] = experiment: Antimicrobial activity against Pseudomonas aeruginosa MTCC 1688 at 750 ug/ml after 24 hrs by cup plate method; conditions: MTCC 1688, 24 h, read-out: IZ
Aspergillus terreus [24] = experiment: Antimicrobial activity against Aspergillus terreus MTCC 1782 at 1000 ug/ml after 72 hrs by cup plate method; conditions: MTCC 1782, 72 h, read-out: IZ
Aspergillus terreus [25] = experiment: Antimicrobial activity against Aspergillus terreus MTCC 1782 at 500 ug/ml after 72 hrs by cup plate method; conditions: MTCC 1782, 72 h, read-out: IZ
Aspergillus terreus [26] = experiment: Antimicrobial activity against Aspergillus terreus MTCC 1782 at 750 ug/ml after 72 hrs by cup plate method; conditions: MTCC 1782, 72 h, read-out: IZ

SMILES	zone of inhibition at 1000 µg/mL (Pseudomonas aeruginosa [1])	zone of inhibition at 500 µg/mL (Aspergillus flavus [2])	zone of inhibition at 1000 µg/mL (Klebsiella pneumoniae [3])	zone of inhibition at 500 µg/mL (Aspergillus niger [4])	zone of inhibition at 500 µg/mL (Klebsiella pneumoniae [5])	zone of inhibition at 1000 µg/mL (Escherichia coli [6])	zone of inhibition at 750 µg/mL (Escherichia coli [8])	zone of inhibition at 750 µg/mL (Staphylococcus aureus [9])	zone of inhibition at 1000 µg/mL (Aspergillus niger [10])	zone of inhibition at 1000 µg/mL (Aspergillus oryzae [11])	zone of inhibition at 500 µg/mL (Escherichia coli [12])	zone of inhibition at 750 µg/mL (Aspergillus oryzae [13])	zone of inhibition at 750 µg/mL (Aspergillus flavus [14])	Activity [15]	zone of inhibition at 750 µg/mL (Klebsiella pneumoniae [16])	zone of inhibition at 1000 µg/mL (Staphylococcus aureus [17])	zone of inhibition at 500 µg/mL (Aspergillus oryzae [18])	zone of inhibition at 750 µg/mL (Aspergillus niger [19])	zone of inhibition at 1000 µg/mL (Aspergillus flavus [20])	zone of inhibition at 500 µg/mL (Pseudomonas aeruginosa [21])	other results
N#CC1=C(N)OC(c2ccc(Cl)cc2)=CC1c1c(-c2ccccc2)[nH]c2ccc(Cl)cc12 (stereo not drawn)	10 mm	12 mm	10 mm	10 mm	10 mm	14 mm	13 mm	13 mm	10 mm	9 mm	13 mm	10 mm	12 mm	Active	10 mm	13 mm	10 mm	10 mm	13 mm	10 mm	Activity [7]: Active; zone of inhibition at 500 µg/mL (Staphylococcus aureus [22]): 13 mm; zone of inhibition at 750 µg/mL (Pseudomonas aeruginosa [23]): 10 mm
Nc1n[nH]c2c1C(c1c(-c3ccccc3)[nH]c3ccccc13)C=C(c1ccccc1)O2 (stereo not drawn)	12 mm	10 mm	8 mm	5 mm	10 mm	9 mm	9 mm	2 mm	6 mm	10 mm	10 mm	5 mm	10 mm	Active	9 mm	2 mm	6 mm	5 mm	3 mm	12 mm	zone of inhibition at 1000 µg/mL (Aspergillus terreus [24]): 5 mm; zone of inhibition at 500 µg/mL (Aspergillus terreus [25]): 5 mm; zone of inhibition at 750 µg/mL (Aspergillus terreus [26]): 5 mm; zone of inhibition at 500 µg/mL (Staphylococcus aureus [22]): 2 mm; zone of inhibition at 750 µg/mL (Pseudomonas aeruginosa [23]): 12 mm
Cc1ccc2[nH]c(-c3ccccc3)c(C3C=C(c4ccccc4)OC(N)=C3C#N)c2c1 (stereo not drawn)	5 mm	2 mm	4 mm	9 mm	4 mm	5 mm	6 mm	5 mm	10 mm	3 mm	6 mm	4 mm	2 mm	Active	4 mm	5 mm	8 mm	10 mm	4 mm	6 mm	zone of inhibition at 1000 µg/mL (Aspergillus terreus [24]): 5 mm; zone of inhibition at 500 µg/mL (Aspergillus terreus [25]): 6 mm; zone of inhibition at 750 µg/mL (Aspergillus terreus [26]): 5 mm; zone of inhibition at 500 µg/mL (Staphylococcus aureus [22]): 5 mm; zone of inhibition at 750 µg/mL (Pseudomonas aeruginosa [23]): 5 mm
